Measurements from patent publication EP0540090A2, “Liquid cleaning compositions” (UNILEVER N.V., priority 1991, dated 1993).
Read-outs that look alike come from different tables or passages of the source.

What was measured:
[1] = Precursor solubility in the liquid phase (2:1 nonionic surfactant blend Vista NI and Synperonic A3), by GC (TAED) and HPLC (rest)
[2] = Storage stability of precursor and percarbonate in the non-aqueous liquid formulation of Example 1; details: Example 1 formulation, after storage for 8 weeks at ambient temperature
[3] = 2:1 nonionic surfactant combination (Vista NI and Synperonic A3), ambient temperature
[4] = 2:1 nonionic surfactant combination (Vista NI and Synperonic A3), ambient temperature, molar solubility multiplied by number of active groups

Row | % w/w dissolved [1, 3] [% w/w] | mmol% active groups dissolved [1, 4] [mmol%] | stability precursor [2] [% **)] | Compound | % w/w dissolved [1] [% w/w] | mmol% active groups dissolved [1] [mmol%]
1 | – | – | – | 2-(N,N,N-trimethylammonium)ethyl sodium 4-sulphophenyl carbonate [Compound B] | <0.025 | <0.08
2 | <0.05 | <0.14 | 88 | C[N+](C)(C)Cc1ccc(C(=O)Oc2ccc(S(=O)(=O)[O-])cc2)cc1 [Compound A, 1-[4-(N,N,N-trimethylammoniummethyl)benzoyloxy] benzene-4-sulphonate] | – | –
3 | <0.01 | <0.03 | – | C[N+](C)(C)c1ccc(C(=O)Oc2ccc(S(=O)(=O)[O-])cc2)cc1 [Compound E] | – | –
